According to US12649733B2, “3,6-diamino-pyridazin-3-yl derivatives, pharmaceutical compositions containing them and their uses as pro-apoptotic agents” (LES LABORATOIRES SERVIER, priority 2019, dated 2026):

Columns and labels:
BCLXL = BCLXL (Homo sapiens, UniProt Q07817, V10N/V9A); experiment: Fluorescence polarisation assay (PUMA-based probe displacement); assay type: binding; note: 20 nM protein, 10 nM fluorescent probe
H146 cells = experiment: H146 cell viability, MTT assay; assay type: cell-based; conditions: Homo sapiens, NCI-H146, 48 h, 48 h exposure
Summary of the method: (§1)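 Viability read by MTT reduction (OD 540 nm after overnight SDS/HCl lysis) after 48 h compound treatment of cells in RPMI 1640/10% FBS. Triplicates at nine concentrations, 3.16-fold apart; four-parameter curve fitting yields IC50.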

MOLT-4 cells = experiment: MOLT-4 cell viability, MTT assay; assay type: cell-based; conditions: Homo sapiens, MOLT-4, 48 h, 48 h exposure
Summary of the method: as §1

Sequence of BCLXL (Q07817 with tags, fused parts or gaps V9A/V10N): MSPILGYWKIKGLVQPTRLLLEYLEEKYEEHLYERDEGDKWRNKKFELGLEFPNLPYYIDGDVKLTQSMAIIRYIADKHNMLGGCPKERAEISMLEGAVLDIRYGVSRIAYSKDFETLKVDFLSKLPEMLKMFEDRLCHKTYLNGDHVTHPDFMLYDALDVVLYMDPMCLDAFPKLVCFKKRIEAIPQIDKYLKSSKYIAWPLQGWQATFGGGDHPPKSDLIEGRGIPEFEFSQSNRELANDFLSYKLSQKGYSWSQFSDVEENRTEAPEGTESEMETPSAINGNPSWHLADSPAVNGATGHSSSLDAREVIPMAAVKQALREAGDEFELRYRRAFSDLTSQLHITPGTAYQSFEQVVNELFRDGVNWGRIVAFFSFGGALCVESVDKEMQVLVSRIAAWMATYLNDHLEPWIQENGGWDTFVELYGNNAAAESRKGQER

Compound | Ki (BCLXL) [nM] | IC50 (H146 cells) [nM] | IC50 (MOLT-4 cells) [nM]
COCCCc1sc(N(CCCOC)c2cc(C)c(Nc3nc4ccccc4s3)nn2)nc1C(=O)O [Example 64, 2-({6-[(1,3-Benzothiazol-2-yl)amino]-5-methylpyridazin-3-yl}(3-methoxypropyl)amino)-5-(3-methoxypropyl)-1,3-thiazole-4-carboxylic acid] | 31 | 22.4 | 3590
COCCCN(c1cc(C)c(Nc2nc3ccccc3s2)nn1)c1nc(C(=O)O)c(CCCOC2CCCCC2)s1 [Example 66, 2-({6-[(1,3-Benzothiazol-2-yl)amino]-5-methylpyridazin-3-yl}(3-methoxypropyl)amino)-5-[3-(cyclohexyloxy)propyl]-1,3-thiazole-4-carboxylic acid] | 1.9 | 1160 | 527
COCCCN(c1cc(C)c(Nc2nc3ccccc3s2)nn1)c1nc(C(=O)O)c(CCCOc2ccccc2F)s1 [Example 67, 2-({6-[(1,3-Benzothiazol-2-yl)amino]-5-methylpyridazin-3-yl}(3-methoxypropyl)amino)-5-[3-(2-fluorophenoxy)propyl]-1,3-thiazole-4-carboxylic acid] | < 1 | 710 | 754
Cc1cc(N(C)c2nc(C(=O)O)c(N3CC(Oc4ccccc4)C3)s2)nnc1Nc1nc2ccccc2s1 [Example 69, 2-({6-[(1,3-Benzothiazol-2-yl)amino]-5-methylpyridazin-3-yl}(methyl)amino)-5-(3-phenoxyazetidin-1-yl)-1,3-thiazole-4-carboxylic acid] | 4.2 | 686 | 446
Cc1cc(N(C)c2nc(C(=O)O)c(N3CCC(OCc4ccccc4)CC3)s2)nnc1Nc1nc2ccccc2s1 [Example 75, 2-({6-[(1,3-Benzothiazol-2-yl)amino]-5-methylpyridazin-3-yl}(methyl)amino)-5-[4-(benzyloxy)piperidin-1-yl]-1,3-thiazole-4-carboxylic acid] | < 1 | > 15000 | 2920
Cc1cc(N(C)c2nc(C(=O)O)c(C3CCC3)s2)nnc1Nc1nc2ccccc2s1 [Example 78, 2-({6-[(1,3-Benzothiazol-2-yl)amino]-5-methylpyridazin-3-yl}(methyl)amino)-5-cyclobutyl-1,3-thiazole-4-carboxylic acid] | 110 | > 15000 | > 15000

Second part, the compound after the results:

Ki (BCLXL) [nM] | IC50 (H146 cells) [nM] | IC50 (MOLT-4 cells) [nM] | Compound
5.7 | 2600 | 279 | Cc1cc(N(C)c2nc(C(=O)O)c(N3CC(OCc4ccccc4)C3)s2)nnc1Nc1nc2ccccc2s1 [Example 68, 2-({6-[(1,3-Benzothiazol-2-yl)amino]-5-methylpyridazin-3-yl}(methyl)amino)-5-[3-(benzyloxy)azetidin-1-yl]-1,3-thiazole-4-carboxylic acid]
30 | > 15000 | > 41600 | Cc1cc(N(C)c2nc(C(=O)O)c(N3CC[C@H](OCc4ccccc4)C3)s2)nnc1Nc1nc2ccccc2s1 [Example 70, 2-({6-[(1,3-Benzothiazol-2-yl)amino]-5-methylpyridazin-3-yl}(methyl)amino)-5-[(3S)-3-(benzyloxy)pyrrolidin-1-yl]-1,3-thiazole-4-carboxylic acid]
> 10000 | > 15000 | > 15000 | Cc1cc(N(C)c2nc(C(=O)O)c(N3CC[C@@H](OCc4ccccc4)C3)s2)nnc1Nc1nc2ccccc2s1 [Example 71, 2-({6-[(1,3-Benzothiazol-2-yl)amino]-5-methylpyridazin-3-yl}(methyl)amino)-5-[(3R)-3-(benzyloxy)pyrrolidin-1-yl]-1,3-thiazole-4-carboxylic acid]
110 | ≥ 14900 | 6590 | Cc1cc(N(C)c2nc(C(=O)O)c(N3CC[C@H](Oc4ccccc4)C3)s2)nnc1Nc1nc2ccccc2s1 [Example 77, 2-({6-[(1,3-Benzothiazol-2-yl)amino]-5-methylpyridazin-3-yl}(methyl)amino)-5-[(3S)-3-phenoxypyrrolidin-1-yl]-1,3-thiazole-4-carboxylic acid]
